Values after ≈ are worked out from the molar mass of the structure shown.
Assays:
[1] = tested on: Staphylococcus aureus ATCC 29213 (MSSA); assay: minimum inhibitory concentration; extreme values may be limits of the assay
Outline: (§1)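 Following CLSI guidance, methicillin-susceptible and methicillin-resistant Staphylococcus aureus were exposed to compounds from 0 to 100 µM in 96-well plates for 24 h at 37°C, then to 30 µl of 0.015% resazurin for 2–4 h. The minimum inhibitory concentration was read as the lowest concentration with no change from blue to pink. Testing was done at least twice in triplicate with positive controls on each plate.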

[2] = tested on: Staphylococcus aureus ATCC 700699 (MRSA); assay: as above
Outline: as §1

Compound | minimum inhibitory concentration [1] | minimum inhibitory concentration [2]
Cc1nc(-c2ccccn2)nc(N2CCC(Cc3ccccc3)C2)c1Cl (stereo not given) | > 50 µM | > 50 µM
CCN(CC)CCCCCCNc1cc(OC)cc2c(C)ccnc12 | > 50 µM | > 50 µM
O=C(Nc1cccc(-c2ccc(NCCCN3CCCC3)nc2)c1)c1ccccc1 | > 50 µM | > 50 µM
CNc1snc(C)c1C(=O)NCCOc1ccc(OC)cc1 | > 50 µM | > 50 µM
CCN(CC)S(=O)(=O)c1ccc(Cl)c(C(=O)Nc2ccc3nc(C)sc3c2)c1 | > 50 µM | > 50 µM
O=C(c1cc2ccccc2o1)N1CCN(Cc2ccc3c(c2)OCO3)CC1 | > 50 µM | > 50 µM
CC(C)(C)c1cc(C(=O)N2CCN(c3nccnc3C#N)CC2)n(Cc2ccccc2)n1 | > 50 µM | > 50 µM
CC(C(=O)N1CCCC1)N1CCN(S(=O)(=O)c2ccc(C(C)(C)C)cc2)CC1 (stereo not given) | > 50 µM | > 50 µM
CC1COC2(CCN(c3nc(=O)c4cc(C(F)(F)F)cc([N+](=O)[O-])c4s3)CC2)O1 (stereo not given) | > 50 µM | > 50 µM
CCN(CC)S(=O)(=O)c1ccc(C(=O)Nc2cc(C)nn2-c2nc(C)c(C)c(=O)[nH]2)cc1 | 50 µM (≈ 22.9 µg/mL) | 50 µM (≈ 22.9 µg/mL)
CCCCN(CCCC)c1c(C#N)cc(S(=O)(=O)Nc2ccccc2)cc1C#N | > 50 µM | > 50 µM
O=C1[C@@H](Oc2ccccc2)[C@@H](c2ccc(Cl)cc2)N1CCn1cnc2c(NCc3ccccc3)ncnc21 | > 50 µM | > 50 µM
O=C(NCCc1c[nH]c2ccccc12)c1cc2ccccc2oc1=O | > 50 µM | > 50 µM
CCc1nc2ccccc2n1CC(O)COc1cc(C)ccc1Cl (stereo not given) | > 50 µM | > 50 µM
O=C(NCc1ccoc1)N1CCN(Cc2ccc3c(c2)OCO3)CC1 | > 50 µM | > 50 µM
C[C@H]1COc2c(N3CCN(C)CC3)c(F)cc3c(=O)c(C(=O)O)cn1c23 | 0.78 µM (≈ 0.282 µg/mL) | 50 µM (≈ 18.1 µg/mL)
CC(C(=O)Nc1ccc2oc(-c3ccncc3)nc2c1)c1ccccc1 (stereo not given) | > 50 µM | > 50 µM
CCS(=O)(=O)N(Cc1ccco1)Cc1cc2ccc(C)cc2nc1O | > 50 µM | > 50 µM
CN(C)CCNC(=O)N1CCCN(c2ncnc3cc(-c4ccccc4)sc23)CC1 | > 50 µM | > 50 µM
CCOc1ccccc1NC(C)C(=O)Nc1cc(C(F)(F)F)ccc1N1CCOCC1 (stereo not given) | > 50 µM | > 50 µM
O=C(Nc1ccnc(-c2cccnc2)n1)c1cc(C(F)(F)F)cc(C(F)(F)F)c1 | > 50 µM | > 50 µM
CCCCc1ccc(C(=O)Nc2nccc3ccccc23)nc1 | > 50 µM | > 50 µM
CCOc1ccc2cc(-c3nn(CC4CCN(C)CC4)c4ncnc(N)c34)ccc2c1 | > 50 µM | > 50 µM
CC(=O)NC[C@H]1CN(c2ccc(N3CCSCC3)c(F)c2)C(=O)O1 | 6.25 µM (≈ 2.21 µg/mL) | 3.12 µM (≈ 1.1 µg/mL)

Compound | minimum inhibitory concentration [1] | minimum inhibitory concentration [2]
CC(C)(CN)c1nc(-c2ccc(Cl)c(O)c2)c(-c2ccnc(N)n2)[nH]1 | > 50 µM | > 50 µM
Cc1ccc(S(=O)(=O)Nc2ccc(CN3CCN(C(=O)c4cccc(C#N)c4)CC3)cc2)cc1 | > 50 µM | > 50 µM
COc1ccc(N(CCc2cccc(C)n2)C(=O)C2CCCCC2)cc1 | > 50 µM | > 50 µM
Nc1ncc(Br)cc1-c1nc2cc(Cl)cnc2[nH]1 | > 50 µM | > 50 µM
O=C(Nc1cnc2ccccc2c1)c1cccc(-n2cnnn2)c1 | > 50 µM | > 50 µM
O=C(C1CCN(c2nnnn2-c2ccccc2)CC1)N1CCc2ccccc2C1 | > 50 µM | > 50 µM
COc1ccc2nc(C)cc(OCC(=O)Nc3ccccc3OC)c2c1 | > 50 µM | > 50 µM
Cc1[nH]c2cc(F)cc(F)c2c(=O)c1-c1ccc(Oc2ccc(OC(F)(F)F)cc2)cc1 | > 50 µM | > 50 µM
CNC(=O)C1Cc2ccccc2N1C(=O)Cc1ccc(F)cc1 (stereo not given) | > 50 µM | > 50 µM
CCCCS(=O)(=O)Nc1ccc2cnn(C)c2c1 | > 50 µM | > 50 µM
COC(=O)c1cccc2oc(-c3cccc(OC)c3NC(=O)c3cc(-c4ccccc4)on3)nc12 | > 50 µM | > 50 µM
N=C(N)c1ccc(OCCCCCOc2ccc(C(=N)N)cc2)cc1 | 12.5 µM (≈ 4.26 µg/mL) | > 50 µM
Cc1ccc(NC(=O)c2nc[nH]c2C(=O)Nc2nc3ccccc3[nH]2)c(C)c1 | > 50 µM | > 50 µM
Nc1ncnc2c1ncn2C[C@@H](O)[C@@H](O)C(=O)O | > 50 µM | > 50 µM
Cc1ccc2[nH]c(C3CCCNC3)c(-c3ccncc3)c2c1 (stereo not given) | > 50 µM | > 50 µM
c1ccc(-c2cc(N3CCCCC3)c3ccccc3n2)nc1 | > 50 µM | > 50 µM
CCCCOC(=O)Nc1cc2nc(C3CCCCC3)[nH]c2cc1N1CCCC1 | > 50 µM | > 50 µM
CC1(C)OB(O)c2ccc(C3=NOC(c4cc(Cl)c(F)c(Cl)c4)(C(F)(F)F)C3)cc21 (stereo not given) | 6.25 µM (≈ 2.89 µg/mL) | 6.25 µM (≈ 2.89 µg/mL)
O=C(C1CCN(c2nnc(-n3cccc3)s2)CC1)N1CCC(Cc2ccccc2)CC1 | > 50 µM | > 50 µM
CNc1nnc(Sc2cnn(-c3ccccc3)c(=O)c2Cl)s1 | > 50 µM | > 50 µM
O=C(Nc1ccc(N2CCNCC2)cc1)c1ccn2ncc(-c3cccc(Cl)c3)c2n1 | > 50 µM | > 50 µM
CCN(CC)CCCN1CCN(C(=O)c2cccc(-c3noc(C(F)(F)F)n3)c2)CC1 | > 50 µM | > 50 µM
CCn1cnc2c(Nc3cc(F)cc(F)c3)nc(C#N)nc21 | > 50 µM | > 50 µM
Cc1cc(C)n(-c2ccc(NC(=O)C3CCN(Cc4cnc(C)s4)CC3)cc2)n1 | > 50 µM | > 50 µM

Compound | minimum inhibitory concentration [1] | minimum inhibitory concentration [2]
CC(C)(C)[C@H]1CC[C@H](CC2=C(O)C(=O)c3ccccc3C2=O)CC1 | > 50 µM | > 50 µM
CCOc1ccc(-c2nc(CNCCc3ccc(F)cc3)cs2)cc1 | > 50 µM | > 50 µM
COc1ccccc1OCCCCn1c(C2CC2)nc2ccccc21 | > 50 µM | > 50 µM
Cc1cc(O)nc(-n2nc(C)cc2C)n1 | > 50 µM | > 50 µM
Cc1ccc2c(c1C)NC(=O)C21NN=C(c2ccccc2)S1 (stereo not given) | > 50 µM | > 50 µM
CCc1nn(C)c(C(=O)NCc2ccc(Oc3ccc(C)cc3)cc2)c1Cl | > 50 µM | > 50 µM
COc1ccc(-c2onc(C(F)(F)F)c2-c2ccc(Cl)cc2)c(O)c1 | > 50 µM | > 50 µM
CCOC(=O)NC(=O)c1ccsc1NC(=O)c1nc2ccccc2s1 | > 50 µM | > 50 µM
O=C(Nc1nc(-c2ccccn2)cs1)C1CC1c1ccccc1F (stereo not given) | > 50 µM | > 50 µM
CS(=O)(=O)c1ccccc1C(=O)N(Cc1ccccc1)c1ccccc1 | > 50 µM | > 50 µM
O=C(C(Cc1c[nH]c2ccccc12)NS(=O)(=O)c1ccc(Cl)cc1)N1CCCCC1 (stereo not given) | > 50 µM | > 50 µM
c1cncc(NCc2ccc(-c3cc4ccncc4cc3OC3CCNCC3)s2)c1 | > 50 µM | > 50 µM
N#Cc1ccc(-c2cnc(N)c(-c3ccc(C(N)=O)cc3)n2)cc1 | > 50 µM | > 50 µM
Nc1ncnc2c1ncn2[C@@H]1O[C@H](COS(=O)(=O)NC(=O)c2ccccc2O)[C@@H](O)[C@H]1O | > 50 µM | > 50 µM
N#CCN(CCCCN1CCN(c2ccc(F)cc2)CC1)C(=O)OCc1ccccc1 | > 50 µM | > 50 µM
O=C1Nc2ccc(Br)cc2C12NCCc1c2[nH]c2ccccc12 (stereo not given) | > 50 µM | > 50 µM
FC(F)(F)c1cnc(Sc2nnc(-c3ccncc3)o2)c(Cl)c1 | > 50 µM | > 50 µM
O=C(Nc1ccc(N2CCNCC2)nc1)c1oc(-c2ccccc2)nc1C(F)(F)F | > 50 µM | > 50 µM
CN1CCCC1CCO[C@](C)(c1ccccc1)c1ccc(Cl)cc1 (stereo not given in full) | > 50 µM | 50 µM (≈ 17.2 µg/mL)
CC(C)(C)c1cc(C(=O)Nc2cccnc2)cc(C(=O)Nc2cccnc2)c1 | > 50 µM | > 50 µM
COc1ccc(C2(C(=O)Nc3ccc(Br)cc3)CCCC2)cc1 | > 50 µM | > 50 µM
O=C(CN1CCOCC1)Nc1ccc2ncnc(Nc3ccc(OCc4cccc(F)c4)c(Cl)c3)c2c1 | > 50 µM | > 50 µM
